{
  "source": "paper PMC4667731",
  "about": "(Journal of medicinal chemistry, 2015)",
  "key": {"[1]": {"system": "M. tuberculosis H37Rv", "assay": "M. tuberculosis H37Rv MIC assay under iron-deficient conditions", "assay_type": "cell-based", "settings": "Mycobacterium tuberculosis, pH 6.6"}, "[2]": {"assay": "Aqueous solubility", "assay_type": "physicochemical"}, "[3]": {"assay": "Estimated pKa of the acyl-sulfonyl linker", "assay_type": "physicochemical"}, "[4]": {"system": "UDP-gluguronosyl transferase (UDPGT)", "assay": "Glucuronidation study, rat liver microsomes", "settings": "UDPGA"}, "[5]": {"system": "UDP-gluguronosyl transferase (UDPGT)", "assay": "Glucuronidation study, human liver microsomes", "settings": "UDPGA"}, "[6]": {"assay": "Serum stability studies of prodrugs", "assay_type": "in vitro ADME", "settings": "Figure S8"}, "[7]": {"assay": "Pharmacokinetics in Sprague-Dawley rats", "settings": "rat; for detection in serum samples after oral dose of prodrug: p.o. 25 mg/kg"}, "[8]": {"assay": "Stability under acidic and alkaline conditions", "assay_type": "physicochemical", "settings": "24 h at 37 °C"}, "[9]": {"system": "TB infection", "settings": "dosed intraperitoneally; cited from earlier work"}, "[10]": {"assay": "in vitro", "settings": "human, Caco-2, […]"}},
  "note": "“Also recorded” adds a separate entry of the source.",
  "data": [
    {"compound": "CCN(CC)CC.O=C(NS(=O)(=O)NC[C@H]1O[C@@H](n2cnc3c(NC4CC4)nc(-c4ccccc4)nc32)[C@H](O)[C@@H]1O)c1ccccc1O", "note": "[Compound 7, N^6-Cyclopropyl-5′-deoxy-5′-N-[N-(2-hydroxybenzoyl)sulfamoyl]amino-2-phenyladenosine triethylammonium salt]", "values": [
      {"measurement": "MIC", "setting": "[1]", "value": 4.27, "unit": "µg/mL"},
      {"measurement": "aqueous solubility", "setting": "[2]", "value": "poor aqueous solubility"}
    ]},
    {"compound": "CCN(CC)CC.Nc1ncnc2c1ncn2[C@@H]1O[C@H](CNS(=O)(=O)NC(=O)c2ccccc2O)C[C@H]1F", "note": "[Compound 10, 2′, 3′, 5′-Trideoxy-5′-N-[N-(2-hydroxybenzoyl)sulfamoyl]amino-2′-fluoroadenosine triethylammonium salt]", "values": [
      {"measurement": "MIC", "setting": "[1]", "value": 0.43, "unit": "µg/mL"}
    ]},
    {"compound": "CCN(CC)CC.Nc1ccc(C(=O)NS(=O)(=O)NC[C@H]2O[C@@H](n3cnc4c(N)ncnc43)[C@H](O)[C@@H]2O)c(O)c1", "note": "[Compound 5, 5′-N-[N-(4-Amino-2-hydroxybenzoyl)sulfamoyl]amino-5′-deoxyadenosine]", "values": [
      {"measurement": "MIC", "setting": "[1]", "value": 1.81, "unit": "µg/mL"},
      {"measurement": "pKa", "setting": "[3]", "value": "~6"}
    ]},
    {"compound": "COc1c(C)c2c(c(O)c1C/C=C(\\C)CCC(=O)O)C(=O)OC2", "note": "[MPA, Mycophenolic Acid]", "values": [
      {"measurement": "glucuronidated at 60 min", "setting": "[4]", "value": 30, "unit": "%"},
      {"measurement": "glucuronidated at 60 min", "setting": "[5]", "value": 85, "unit": "%"}
    ]},
    {"compound": "5′-O-[N-(2-Acetoxybenzoyl)sulfamoyl]-2′, 3′-O-di-acetyladenosine [Compound 3]", "values": [
      {"measurement": "serum stability (acetate cleavage)", "setting": "[6]", "value": "rapidly cleaved"},
      {"measurement": "detection in serum samples after oral dose of prodrug", "setting": "[7]; 25 mg/kg", "value": "neither of the parent compounds was detected; also recorded: only a negligible amount of 1 could be detected"}
    ]},
    {"compound": "CCN(CC)CC.Nc1ncnc2c1ncn2[C@@H]1O[C@H](COS(=O)(=O)NC(=O)c2ccccc2O)[C@@H](O)[C@H]1O", "note": "[Compound 1, 5′-O-[N-(salicyl)sulfamoyl]adenosine]", "values": [
      {"measurement": "MIC", "setting": "[1]", "value": 0.2, "unit": "µg/mL"},
      {"measurement": "degradation", "setting": "[8]; acidic (pH 1)", "value": "less than 5%"},
      {"measurement": "degradation", "setting": "[8]; alkaline (pH 12)", "value": "less than 5%"},
      {"measurement": "pKa", "setting": "[3]", "value": "~3"},
      {"measurement": "efficacy in acute murine TB infection model", "setting": "[9]", "value": "effective"},
      {"measurement": "Papp A→B", "setting": "[10]", "value": 1.2, "unit": "×10⁻⁶ cm/s"}
    ]},
    {"compound": "CCN(CC)CC.Nc1ncnc2c1ncn2[C@@H]1O[C@H](CNS(=O)(=O)NC(=O)c2ccccc2O)[C@@H](O)[C@H]1O", "note": "[Compound 4, 5′-N-[N-(2-Hydroxybenzoyl)sulfamoyl]amino-5′ -deoxyadenosine triethylammonium salt]", "values": [
      {"measurement": "MIC", "setting": "[1]", "value": 0.11, "unit": "µg/mL"},
      {"measurement": "pKa", "setting": "[3]", "value": "~5"},
      {"measurement": "Cmax", "setting": "[7]; female, Sprague-Dawley, in vivo, po, 25 mg/kg", "value": 1400, "unit": "nM"}
    ]},
    {"compound": "2′, 3′ -O-di-Acetyl-5′ -O-[N-(2-hydroxybenzoyl)sulfamoyl]adenosine [Compound 2]", "values": [
      {"measurement": "serum stability (acetate cleavage)", "setting": "[6]", "value": "slowly hydrolyzed"},
      {"measurement": "detection in serum samples after oral dose of prodrug", "setting": "[7]", "value": "neither of the parent compounds was detected"}
    ]},
    {"compound": "CCN(CC)CC.Nc1nc(-c2ccccc2)nc2c1ncn2[C@@H]1O[C@H](CNS(=O)(=O)NC(=O)c2ccccc2O)[C@@H](O)[C@H]1F", "note": "[Compound 9, 2′, 5′-Dideoxy-2′-fluoro-5′-N-[N-(2-hydroxybenzoyl)sulfamoyl]amino-2-phenyladenosine triethylammonium salt]", "values": [
      {"measurement": "MIC", "setting": "[1]", "value": 1, "unit": "µg/mL"}
    ]},
    {"compound": "CCN(CC)CC.Nc1ncnc2c1ncn2[C@@H]1O[C@H](CNS(=O)(=O)NC(=O)c2ccccc2O)[C@@H](O)[C@H]1F", "note": "[Compound 8, 5′-N-[N-(2-Hydroxybenzoyl)sulfamoyl]amino-2′, 5′-dideoxy-2′-fluoroadenosine triethylammonium salt]", "values": [
      {"measurement": "MIC", "setting": "[1]", "value": 0.11, "unit": "µg/mL"}
    ]},
    {"compound": "CCN(CC)CC.O=C(NS(=O)(=O)NC[C@H]1O[C@@H](n2cnc3c(NC4CC4)ncnc32)[C@H](O)[C@@H]1O)c1ccccc1O", "note": "[Compound 6, N^6-Cyclopropyl-5′-deoxy-5′-N-[N-(2-hydroxybenzoyl)sulfamoyl]aminoadenosine triethylammonium salt]", "values": [
      {"measurement": "MIC", "setting": "[1]", "value": 0.06, "unit": "µg/mL"}
    ]}
  ]
}
